The values below come from ChEMBL document CHEMBL1142912, “Novel piperazines: potent melanocortin-4 receptor antagonists with anxiolytic-like activity” (Bioorg Med Chem, 2007).

Usually IC50 stands for the concentration that inhibits the measured activity by half. A higher IC50 goes with weaker potency in that assay.

Active and inactive are the calls of the source. No cut-off for these calls is given here. Where only a bound is given, the exact number is not on record here.

Test [1] concerns the target Melanocortin receptor 4 (Homo sapiens, UniProt P32245). As to the kind of experiment: Displacement of [125I][Nle4,D-Phe7]alphaMSH from human MC4R expressed in COS7 cells. The test is classed as cell-based, COS-7. (In general: Displacement assays read how much labelled ligand stays bound in the presence of the test substance.)
The target of test [2] is T1, Adrenergic receptor alpha-1 (Rattus norvegicus, UniProt P15823+P23944+P43140).
T1 sequence (P15823 whole entry): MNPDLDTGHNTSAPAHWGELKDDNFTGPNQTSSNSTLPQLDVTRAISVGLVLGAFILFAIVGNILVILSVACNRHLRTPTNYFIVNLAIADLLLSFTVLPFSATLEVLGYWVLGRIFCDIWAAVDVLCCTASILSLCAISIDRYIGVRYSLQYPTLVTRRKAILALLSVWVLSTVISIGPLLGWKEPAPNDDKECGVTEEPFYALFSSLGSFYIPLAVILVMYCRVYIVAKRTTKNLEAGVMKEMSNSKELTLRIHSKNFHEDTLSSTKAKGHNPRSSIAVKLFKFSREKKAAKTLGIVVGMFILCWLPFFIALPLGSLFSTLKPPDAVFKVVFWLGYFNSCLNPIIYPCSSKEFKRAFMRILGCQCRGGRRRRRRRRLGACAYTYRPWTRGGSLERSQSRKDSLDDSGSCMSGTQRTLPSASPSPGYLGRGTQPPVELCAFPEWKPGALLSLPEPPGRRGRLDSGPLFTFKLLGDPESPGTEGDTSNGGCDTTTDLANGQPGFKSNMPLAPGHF
T1 sequence (P23944 whole entry): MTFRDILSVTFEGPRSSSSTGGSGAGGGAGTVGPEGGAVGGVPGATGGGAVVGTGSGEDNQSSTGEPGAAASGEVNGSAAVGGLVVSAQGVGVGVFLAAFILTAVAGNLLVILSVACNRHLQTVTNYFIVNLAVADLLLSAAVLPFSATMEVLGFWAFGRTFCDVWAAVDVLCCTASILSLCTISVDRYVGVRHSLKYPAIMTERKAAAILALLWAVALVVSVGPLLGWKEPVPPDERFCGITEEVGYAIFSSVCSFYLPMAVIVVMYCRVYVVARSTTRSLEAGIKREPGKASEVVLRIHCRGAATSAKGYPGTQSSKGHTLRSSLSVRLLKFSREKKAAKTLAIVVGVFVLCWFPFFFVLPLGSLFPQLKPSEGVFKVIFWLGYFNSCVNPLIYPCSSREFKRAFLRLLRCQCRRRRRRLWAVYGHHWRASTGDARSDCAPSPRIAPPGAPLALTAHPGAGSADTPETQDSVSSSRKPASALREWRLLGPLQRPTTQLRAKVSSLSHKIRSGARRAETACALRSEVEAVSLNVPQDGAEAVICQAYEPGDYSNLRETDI
T1 sequence (P43140 whole entry): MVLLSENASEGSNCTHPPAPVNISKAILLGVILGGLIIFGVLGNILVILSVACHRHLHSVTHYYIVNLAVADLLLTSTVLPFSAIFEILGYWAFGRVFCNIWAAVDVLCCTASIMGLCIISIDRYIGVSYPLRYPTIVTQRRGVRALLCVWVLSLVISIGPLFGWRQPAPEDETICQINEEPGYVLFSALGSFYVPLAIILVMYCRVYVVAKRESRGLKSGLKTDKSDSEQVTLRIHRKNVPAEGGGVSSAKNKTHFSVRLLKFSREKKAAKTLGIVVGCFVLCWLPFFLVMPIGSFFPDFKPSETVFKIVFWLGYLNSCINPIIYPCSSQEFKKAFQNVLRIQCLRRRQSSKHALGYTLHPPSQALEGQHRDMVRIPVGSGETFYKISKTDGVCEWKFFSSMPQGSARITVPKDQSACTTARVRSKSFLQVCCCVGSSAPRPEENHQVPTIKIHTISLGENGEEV
The test can be described thus: Displacement of [3H]prazosin from Adrenergic alpha-1 receptor in rat cortical membrane. In kind it is cell membranes.

In test [3] the target is Histamine H1 receptor (Rattus norvegicus, UniProt P31390). The test can be described thus: Displacement of [3H]pyrilamine from histamine H1 receptor in rat brain membrane. The test is classed as cell membranes.
Sequence of Histamine H1 receptor (P31390 whole entry): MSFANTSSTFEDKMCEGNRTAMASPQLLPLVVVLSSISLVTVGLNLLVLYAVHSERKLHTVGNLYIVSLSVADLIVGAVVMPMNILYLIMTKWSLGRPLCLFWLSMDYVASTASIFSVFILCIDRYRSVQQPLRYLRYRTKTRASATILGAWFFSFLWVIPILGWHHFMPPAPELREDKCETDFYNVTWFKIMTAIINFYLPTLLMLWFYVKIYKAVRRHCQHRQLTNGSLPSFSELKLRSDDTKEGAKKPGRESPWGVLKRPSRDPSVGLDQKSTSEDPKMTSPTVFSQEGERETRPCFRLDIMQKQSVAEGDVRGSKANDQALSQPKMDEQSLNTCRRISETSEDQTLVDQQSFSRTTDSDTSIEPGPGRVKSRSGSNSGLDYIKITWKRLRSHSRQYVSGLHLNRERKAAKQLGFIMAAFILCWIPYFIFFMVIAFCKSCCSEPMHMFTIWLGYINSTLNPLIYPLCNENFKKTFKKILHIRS
The target of test [4] is D(2) dopamine receptor (Rattus norvegicus, UniProt P61169). The test can be described thus: Displacement of [3H]raclopride from dopamine receptor D2 in rat striatal membrane. In kind it is cell membranes, Striatum.
Sequence of D(2) dopamine receptor (P61169 whole entry): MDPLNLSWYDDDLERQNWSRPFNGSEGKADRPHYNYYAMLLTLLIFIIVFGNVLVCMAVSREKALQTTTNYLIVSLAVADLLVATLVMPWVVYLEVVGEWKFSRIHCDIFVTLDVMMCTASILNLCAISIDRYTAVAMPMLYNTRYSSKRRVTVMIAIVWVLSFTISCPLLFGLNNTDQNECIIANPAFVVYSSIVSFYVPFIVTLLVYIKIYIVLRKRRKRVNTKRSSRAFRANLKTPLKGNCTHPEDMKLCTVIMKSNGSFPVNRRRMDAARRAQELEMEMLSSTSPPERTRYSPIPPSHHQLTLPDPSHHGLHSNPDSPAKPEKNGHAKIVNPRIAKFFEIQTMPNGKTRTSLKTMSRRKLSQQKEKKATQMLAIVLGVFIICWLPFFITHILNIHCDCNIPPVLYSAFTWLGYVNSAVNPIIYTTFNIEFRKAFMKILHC
The target of test [5] is Mu-type opioid receptor (Rattus norvegicus, UniProt P33535). As to the kind of experiment: Displacement of [3H]DAMGO from mu opioid receptor in rat brain membrane. In kind it is cell membranes.
Sequence of Mu-type opioid receptor (P33535 whole entry): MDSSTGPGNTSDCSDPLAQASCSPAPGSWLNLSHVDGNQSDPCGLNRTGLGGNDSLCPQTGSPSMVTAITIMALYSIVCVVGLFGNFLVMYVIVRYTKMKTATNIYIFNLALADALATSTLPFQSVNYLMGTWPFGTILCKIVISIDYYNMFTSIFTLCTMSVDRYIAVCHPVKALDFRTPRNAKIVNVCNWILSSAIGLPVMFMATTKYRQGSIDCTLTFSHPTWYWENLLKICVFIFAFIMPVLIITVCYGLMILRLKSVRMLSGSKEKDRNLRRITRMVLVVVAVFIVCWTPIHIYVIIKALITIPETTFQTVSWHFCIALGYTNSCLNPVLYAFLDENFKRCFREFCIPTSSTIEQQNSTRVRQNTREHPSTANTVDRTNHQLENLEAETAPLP
Test [6] has as its target Delta-type opioid receptor (Rattus norvegicus, UniProt P33533). The test can be described thus: Displacement of [3H]DPDPE from delta opioid receptor in rat brain membrane. The test is classed as cell membranes.
For test [7], the target named is Sodium-dependent serotonin transporter (Rattus norvegicus, UniProt P31652). The test can be described thus: Displacement of [3H]paroxetine from serotonin transporter in rat cortical membrane. The test is classed as cell membranes.
Sequence of Sodium-dependent serotonin transporter (P31652 whole entry): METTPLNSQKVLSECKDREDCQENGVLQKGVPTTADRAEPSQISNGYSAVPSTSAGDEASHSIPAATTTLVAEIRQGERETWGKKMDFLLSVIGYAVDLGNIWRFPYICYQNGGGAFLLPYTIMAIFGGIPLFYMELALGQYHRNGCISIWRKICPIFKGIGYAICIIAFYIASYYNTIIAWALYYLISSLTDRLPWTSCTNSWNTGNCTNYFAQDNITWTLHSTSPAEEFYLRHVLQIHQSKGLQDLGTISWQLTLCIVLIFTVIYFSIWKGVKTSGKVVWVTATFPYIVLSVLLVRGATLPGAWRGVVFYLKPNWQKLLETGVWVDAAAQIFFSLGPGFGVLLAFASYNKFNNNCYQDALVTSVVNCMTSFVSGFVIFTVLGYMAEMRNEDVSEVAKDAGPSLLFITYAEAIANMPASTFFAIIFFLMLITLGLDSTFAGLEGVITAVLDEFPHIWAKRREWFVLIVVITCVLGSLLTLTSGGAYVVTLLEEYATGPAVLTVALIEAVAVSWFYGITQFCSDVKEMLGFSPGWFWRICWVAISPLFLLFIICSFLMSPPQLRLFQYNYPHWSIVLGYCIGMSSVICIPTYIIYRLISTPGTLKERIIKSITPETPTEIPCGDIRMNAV
Test [8] has as its target Norepinephrine transporter (Rattus norvegicus, UniProt Q9WTR4). As to the kind of experiment: Displacement of [3H]nisoxetine from NET in rat cortical membrane. The test is classed as cell membranes.
Test [9] relates to Rattus norvegicus. As to the kind of experiment: Reversal of stress-induced anxiety-like behavior in Sprague-Dawley rat at 1 mg/kg, po. In kind it is functional, organism-based. Also noted: dose 1 mg/kg.

Sequence of Melanocortin receptor 4 (P32245 whole entry): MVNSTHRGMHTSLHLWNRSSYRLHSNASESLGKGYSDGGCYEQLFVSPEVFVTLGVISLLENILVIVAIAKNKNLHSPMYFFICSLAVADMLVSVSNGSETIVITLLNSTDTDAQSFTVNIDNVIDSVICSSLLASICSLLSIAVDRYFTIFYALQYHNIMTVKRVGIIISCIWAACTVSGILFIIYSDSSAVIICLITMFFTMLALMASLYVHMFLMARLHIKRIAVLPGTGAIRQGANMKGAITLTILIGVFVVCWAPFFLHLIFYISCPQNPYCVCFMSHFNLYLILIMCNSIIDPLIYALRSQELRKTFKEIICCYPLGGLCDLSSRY
Sequence of Delta-type opioid receptor (P33533 whole entry): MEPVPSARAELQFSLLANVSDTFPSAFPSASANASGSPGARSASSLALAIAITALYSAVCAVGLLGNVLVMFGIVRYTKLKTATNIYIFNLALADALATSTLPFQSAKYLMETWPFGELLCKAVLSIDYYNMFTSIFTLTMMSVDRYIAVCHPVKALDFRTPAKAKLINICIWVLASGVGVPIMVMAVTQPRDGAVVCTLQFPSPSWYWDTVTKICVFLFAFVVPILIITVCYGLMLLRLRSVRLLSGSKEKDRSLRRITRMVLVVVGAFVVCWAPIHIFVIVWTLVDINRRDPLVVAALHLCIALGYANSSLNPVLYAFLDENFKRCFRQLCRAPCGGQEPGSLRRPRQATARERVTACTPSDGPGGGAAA
Sequence of Norepinephrine transporter (Q9WTR4 whole entry): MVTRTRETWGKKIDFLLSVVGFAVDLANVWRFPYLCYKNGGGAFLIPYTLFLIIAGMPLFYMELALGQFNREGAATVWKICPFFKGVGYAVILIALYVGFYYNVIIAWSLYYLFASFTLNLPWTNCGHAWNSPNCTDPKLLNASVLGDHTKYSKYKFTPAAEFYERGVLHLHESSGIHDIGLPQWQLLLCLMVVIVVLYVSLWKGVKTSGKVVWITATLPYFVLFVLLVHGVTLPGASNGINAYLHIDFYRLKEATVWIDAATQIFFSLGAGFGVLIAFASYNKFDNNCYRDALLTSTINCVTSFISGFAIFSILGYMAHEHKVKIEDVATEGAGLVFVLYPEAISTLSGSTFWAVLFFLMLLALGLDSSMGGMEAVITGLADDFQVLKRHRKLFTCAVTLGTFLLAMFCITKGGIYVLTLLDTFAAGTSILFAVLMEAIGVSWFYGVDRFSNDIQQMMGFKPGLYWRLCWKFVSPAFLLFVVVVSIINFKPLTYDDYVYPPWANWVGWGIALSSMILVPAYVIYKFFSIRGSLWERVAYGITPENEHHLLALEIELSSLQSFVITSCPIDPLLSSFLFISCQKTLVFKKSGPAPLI

`CC(C)N1CCC(C(CN2CCN(CCCc3ccc(F)cc3-c3ccccc3)CC2)c2ccc(F)cc2)CC1` (racemic) returned an IC50 in test [1] of 52.7 nM.
Turning to `CC(C)N1CCC(C(CN2CCN(CCCc3c(F)cccc3-c3ccccc3)CC2)c2ccc(F)cc2)CC1.Cl` (racemic), the IC50 in [2] is > 1000 nM; in [3], > 1000 nM; in test [4], > 1000 nM; in test [5] it was > 10000 nM; in test [6], > 10000 nM; in [1], 18.3 nM. In addition, the values for the IC50 in [7] and in test [8] were 723 nM and 491 nM, respectively.
As to `CC(C)N1CCC(C(CN2CCN(CCCc3ccccc3-c3ccc(F)cc3)CC2)c2ccc(F)cc2)CC1.Cl` (racemic), the IC50 in test [2] is > 1000 nM; in test [3] it was > 1000 nM; in test [4], 820 nM; in test [5] it was > 10000 nM; in test [6] it was > 10000 nM; in test [1] it was 14.5 nM. Moreover, the results for the half-inhibitory concentration (IC50) in test [7] and in test [8] were 3940 nM and 729 nM, respectively.
Regarding `CC(C)N1CCC(C(CN2CCN(CCCc3cc(F)ccc3-c3ccccc3)CC2)c2ccc(F)cc2)CC1` (racemic), in test [1], the concentration for half-maximal inhibition (IC50) worked out at 52.2 nM. This counts as double-digit nanomolar.
Take `CC(C)N1CCC(C(CN2CCN(CCCc3cccc(F)c3-c3ccccc3)CC2)c2ccc(F)cc2)CC1.Cl` (racemic): the IC50 in test [2] is > 1000 nM; in test [3] it was > 1000 nM; in test [4], 482 nM; in [5], > 10000 nM; in [6], > 10000 nM; in test [1], 19.8 nM. Moreover, the concentration for half-maximal inhibition (IC50) in test [7] came to 3130 nM; in test [8] it was 3940 nM. Further, in test [9], the result was Active.
In turn, `CC(C)N1CCC(C(CN2CCN(CCCc3ccccc3-c3ccccc3F)CC2)c2ccc(F)cc2)CC1` (racemic) showed an IC50 in [1] of 98.6 nM.
In the case of `CC(C)N1CCC(C(CN2CCN(CCCc3ccccc3-c3ccccc3)CC2)c2ccc(F)cc2)CC1.Cl` (racemic), the IC50 in [2] was > 1000 nM; in test [3], > 1000 nM; in [4], 423 nM; in [5], > 10000 nM; in [6], > 10000 nM; in [1], 19.7 nM. Further, the IC50 in [7] was 953 nM; in test [8], 1180 nM. Also, the result in [9] was Active.
Consider `CN1CCC(C(CN2CCN(CCCCc3cccc4ccccc34)CC2)c2ccc(F)cc2)CC1` (racemic), for which, in test [1], the IC50 came out at 333 nM.
`CC(C)N1CCC(C(CN2CCN(CCCc3ccccc3-c3cccc(F)c3)CC2)c2ccc(F)cc2)CC1.Cl` (racemic): the IC50 is > 1000 nM in test [2]; > 1000 nM in [3]; 805 nM in test [4]; > 10000 nM in test [5]; > 10000 nM in [6]; 23.4 nM in test [1]. In addition, the IC50 stood at 2140 nM in test [7] and 543 nM in test [8].
As for `COc1ccc2ccccc2c1CCCCN1CCN(CC(c2ccc(F)cc2)C2CCN(C(C)C)CC2)CC1.Cl` (racemic), the IC50 in [2] was > 1000 nM; in test [3], > 1000 nM; in [4], > 1000 nM; in test [5] it was > 10000 nM; in test [6] it was > 10000 nM; in test [1], 40.3 nM. In addition, the IC50 in test [7] amounted to 877 nM; in test [8], 2830 nM.
